Data taken from US8815837B2, “Respiratory disease treatment” (Pulmagen Therapeutics (Inflammation) Limited, priority 2008, dated 2014).

Legend:
[1] = test system: Tobacco Smoke Induced Pulmonary Inflammation; assay: Pre-clinical mouse model of COPD inflammation: tobacco smoke induced pulmonary inflammation, BAL cell counts; assay type: in vivo; conditions: mice, intranasal, BAL 24 h after final TS exposure
Source text: Pre-Clinical Mouse Model of COPD Inflammation—Tobacco Smoke Induced Pulmonary Inflammation
Protocols for the exposure of mice to TS, obtaining bronchoalveolar lavage (BAL), preparation of cytospin slides for differential cell counts are as outlined below.
Exposure of Mice to TS Daily for 4 or 11 Consecutive Days
In this exposure protocol, mice were exposed in groups of 5 in individual clear polycarbonate chambers (27 cm×16 cm×12 cm). The TS from the cigarettes was allowed to enter the exposure chambers at a flow rate of 100 ml/min. In order to minimise any potential problems caused by repeated exposure to a high level of TS (6 cigarettes), the exposure of the mice to TS was increased gradually over the exposure period to a maximum of 6 cigarettes. The exposure schedule used for 4 days was as follows:
The exposure schedule used for 11 days exposure was as follows:
A further group of mice were exposed to air on a daily basis for equivalent lengths of time as controls (no TS exposure).
Bronchoalveolar Lavage (BAL) Analysis
Bronchoalveolar lavage was performed as follows: the trachea was cannulated using a Portex nylon intravenous cannula (pink luer fitting) shortened to approximately 8 mm. Phosphate buffered saline (PBS) was used as the lavage fluid. A volume of 0.4 ml was gently instilled and withdrawn 3 times using a 1 ml syringe and then placed in an Eppendorf tube and kept on ice prior to subsequent determinations.
Lavage fluid was separated from cells by centrifugation and the supernatant decanted and frozen for subsequent analysis. The cell pellet was re-suspended in a known volume of PBS and total cell numbers calculated by counting a stained (Turks stain) aliquot under a microscope using a haemocytometer.
Differential Cell Counts were Performed as Follows:
The residual cell pellet was diluted to approximately 10^5 cells per ml. A volume of 500 μl was placed in the funnel of a cytospin slide and centrifuged for 8 min at 800 rpm. The slide was air dried and stained using ‘Kwik-Diff’ solutions (Shandon) as per the proprietary instructions. When dried and cover-slipped, differential cells were counted using light microscopy. Up to 400 cells were counted by unbiased operator using light microscopy. Cells were differentiated using standard morphometric techniques.
Rodents such as mice and rats are obligate nasal breathers thus oral delivery of test materials (such as therapeutic agents) for inhalation will not produce good lung exposure. As a consequence, delivery of therapeutic agents to the lungs in rodents is generally achieved by intra-nasal, intra-tracheal or inhalation by whole body aerosol exposure in a chamber.
The chamber method utilises large amounts of test material and is generally reserved for inhalation toxicology studies rather than pharmacological efficacy studies. Intra-tracheal administration is a very efficient delivery method as almost all of the test material is delivered to the lungs, but this is quite an invasive technique. For studies in the mouse particularly, it is also quite technically demanding as the diameter of the trachea is quite small. The intranasal route is less invasive than the intra-tracheal route and so is particularly suitable for repeat dosing studies such as the 4-11 day mouse model described below.
The control group of mice received vehicle 1 hr prior to being exposed to air daily for a maximum of 50 minutes per day. BAL was performed 24 h following the final TS exposure. All compounds were dosed as the HCl salt with doses corrected as base.
[…]
Data Management and Statistical Analysis
All results are presented as individual data points for each animal and the mean value was calculated for each group.

rodent diabetes model = conditions: oral administration; cited from earlier work
[2] = cited from earlier work
PPARγ receptor = biological target: T1, PPARγ receptor (Homo sapiens, UniProt P37231); conditions: page 13 of WO2007100027; cited from earlier work
T1 sequence (P37231 1-505): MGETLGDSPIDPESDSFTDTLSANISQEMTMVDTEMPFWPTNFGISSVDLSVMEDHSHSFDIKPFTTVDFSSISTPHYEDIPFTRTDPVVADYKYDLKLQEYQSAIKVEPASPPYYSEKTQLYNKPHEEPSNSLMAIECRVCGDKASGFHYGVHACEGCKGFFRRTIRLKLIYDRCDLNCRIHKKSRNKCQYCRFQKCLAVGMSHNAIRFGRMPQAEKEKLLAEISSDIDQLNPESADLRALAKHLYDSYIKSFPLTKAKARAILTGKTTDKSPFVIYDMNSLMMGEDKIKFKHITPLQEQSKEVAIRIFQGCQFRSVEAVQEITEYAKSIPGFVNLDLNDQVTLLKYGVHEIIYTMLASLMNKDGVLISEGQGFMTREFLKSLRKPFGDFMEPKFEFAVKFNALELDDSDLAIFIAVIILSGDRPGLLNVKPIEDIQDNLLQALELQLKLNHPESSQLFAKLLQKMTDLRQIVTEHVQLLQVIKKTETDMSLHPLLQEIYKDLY

[3] = 3 μg/kg, rosiglitazone experiment, FIG. 3
[4] = 3 μg/kg, rosiglitazone experiment, FIG. 4
[5] = 10 μg/kg, rosiglitazone experiment, FIG. 3
[6] = 10 μg/kg, rosiglitazone experiment, FIG. 4
[7] = 1 μg/kg, pioglitazone experiment, FIG. 1
[8] = 1 μg/kg, pioglitazone experiment, FIG. 2
[9] = 3 μg/kg, pioglitazone experiment, FIG. 1
[10] = 3 μg/kg, pioglitazone experiment, FIG. 2

Structure (SMILES)	BAL cell influx (total BAL cells) induced by TS [1, 5]	BAL neutrophil numbers induced by TS exposure [1, 6]	BAL cell influx (total BAL cells) induced by TS [1, 9]	BAL neutrophil numbers induced by TS exposure [1, 10]	also measured
CN(CCOc1ccc(C[C@@H]2SC(=O)NC2=O)cc1)c1ccccn1.Cl [Example 9, (5S)-5-(4-{2-[methyl(pyridin-2-yl)amino]ethoxy}benzyl)-1,3-thiazolidine-2,4-dione hydrochloride monohydrate]	failed to inhibit	ineffective			BAL cell influx (total BAL cells) induced by TS [1, 3]: failed to inhibit; BAL neutrophil numbers induced by TS exposure [1, 4]: ineffective
CCc1ccc(CCOc2ccc(C[C@H]3SC(=O)NC3=O)cc2)nc1.Cl [Example 4, (5R)-5-{4-[2-(5-ethylpyridin-2-yl)ethoxy]benzyl}-1,3-thiazolidine-2,4-dione hydrochloride]			significantly inhibited	significantly inhibited	BAL cell influx (total BAL cells) induced by TS [1, 7]: significantly inhibited; BAL neutrophil numbers induced by TS exposure [1, 8]: significantly inhibited
CCc1ccc(CCOc2ccc(C[C@@H]3SC(=O)NC3=O)cc2)nc1.Cl [Example 6, (5S)-5-{4-[2-(5-ethylpyridin-2-yl)ethoxy]benzyl}-1,3-thiazolidine-2,4-dione hydrochloride]			failed to inhibit	ineffective	BAL cell influx (total BAL cells) induced by TS [1, 7]: failed to inhibit; BAL neutrophil numbers induced by TS exposure [1, 8]: ineffective
CN(CCOc1ccc(C[C@H]2SC(=O)NC2=O)cc1)c1ccccn1.Cl [Example 8, (5R)-5-(4-{2-[methyl(pyridin-2-yl)amino]ethoxy}benzyl)-1,3-thiazolidine-2,4-dione hydrochloride]	significantly inhibited	significantly inhibited			BAL cell influx (total BAL cells) induced by TS [1, 3]: significantly inhibited; BAL neutrophil numbers induced by TS exposure [1, 4]: significantly inhibited
CN(CCOc1ccc(CC2SC(=O)NC2=O)cc1)c1ccccn1 (racemic) [Racemic rosiglitazone, 5-(4-{2-[methyl (pyridin-2-yl)amino]ethoxy]benzyl}-1,3-thiazolidine-2,4-dione, reference compound]	significantly inhibited	significantly inhibited			
CCc1ccc(CCOc2ccc(CC3SC(=O)NC3=O)cc2)nc1 (racemic) [Racemic pioglitazone, 5-{4-[2-(5-ethylpyridin-2-yl)ethoxy]benzyl}-1,3-thiazolidine-2,4-dione, reference compound]			significantly inhibited	significantly inhibited	activity of racemate versus individual enantiomers in a rodent diabetes model (rodent diabetes model): no difference in activity; interconversion of the two enantiomers in vivo [2]: interconvert in vivo
COc1ccc2nc(COc3ccc(CC4SC(=O)NC4=O)cc3)n(C)c2c1 (centres unmarked) [Rivoglitazone]					receptor binding affinity, 5S versus 5R enantiomer (PPARγ receptor): 5S enantiomer also has higher receptor binding affinity than the 5R enantiomer
